The text below walks through data of patent US20210228736A1, “PATHOGEN CONTROL COMPOSITIONS AND USES THEREOF” (Flagship Pioneering Innovations VI, LLC, priority 2018, published 2021).

One series relates to Pseudomonas aeruginosa. The series can be described thus: Treatment with DOX-loaded grapefruit PMPs, kinetic OD 600 nm (P. aeruginosa). Type of series: cell-based. How it is done: (§1) Bacteria and yeast strains were maintained as indicated by the supplier: E. coli (ATCC, #25922) was grown on Trypticase Soy Agar/broth at 37° C., Pseudomonas aeruginosa (ATCC) was grown on Tryptic soy Agar/broth with […] rifampicin at 37° C., and Saccharomyces cerevisiae (ATCC, #9763) was grown on yeast extract peptone dextrose broth (YPD) and maintained at 30° C. Prior to treatment, fresh one day cultures were grown overnight, the OD (600 nm) was adjusted to 0.1 OD with medium prior to use, and bacteria/yeast were transferred to a 96 well plate for treatment (duplicate samples, 100 μl/well). […] Plates were covered with aluminum foil, and incubated at 37° C. (E. coli, P. aeruginosa), or 30° C. (S. cerevisiae) and agitated at 220 rpm.
(§2) A kinetic Absorbance measurement at 600 nm was performed on a SpectraMax® spectrophotometer to monitor the OD of the cultures at t=0h, t=1h, t=2h, t=3h, t=4.5h, t=16h (E. coli, P. aeruginosa) or t=0.5h, t=1.5h, t=2.5h, t=3.5h, t=4h, t=16h (S. cerevisiae). […] To compare the cytotoxic effect of PMP-DOX treatment on different bacterial and yeast strains, within each treatment group the relative OD was determined as compared to the untreated control (set to 100%).

In the next series the test system is E. coli. The series can be described thus: Treatment with DOX-loaded grapefruit PMPs, kinetic OD 600 nm (E. coli). Type of series: cell-based, Escherichia coli. The procedure:
as §1, §2

A further series has as its system Saccharomyces cerevisiae. The series can be described thus: Treatment with DOX-loaded grapefruit PMPs, kinetic OD 600 nm (S. cerevisiae). The series is classed as cell-based. The procedure:
as §1, §2

For the compound `COc1cccc2c1C(=O)c1c(O)c3c(c(O)c1C2=O)C[C@@](O)(C(=O)CO)C[C@@H]3O[C@H]1C[C@H](N)[C@H](O)[C@H](C)O1` [free doxorubicin, doxorubicin], the “onset of cytotoxicity compared with PMP-DOX at the same dosages” value in the series on Pseudomonas aeruginosa, in the series on E. coli and with Saccharomyces cerevisiae was “cytotoxicity is induced earlier than with PMP-DOX delivery” throughout.
